Where “and” joins values, the source holds several entries; their conditions need not be identical. Equal values may be shown once. Inconclusive results and toxic doses are left out. How the source made its calls: active means survival T/C of 150% or more; inactive means T/C below 125% in these data.
Tested on: P388 leukemia ip, CD2F1 mice, survival T/C
Experiment: NCI In Vivo Anticancer Drug Screen. Data for tumor model P388 Leukemia (intraperitoneal) in CD2F1 (CDF1) mice
Settings: endpoint: median survival time, higher = longer survival
How it was run: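 Mice carrying the transplanted tumor received test compound or vehicle. Survival was recorded in each group, and the value is the treated-group measurement divided by that of the vehicle-treated control group.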

[1] = dose: 25.0 mg/kg/injection, schedule: Q01DX009 (ip), vehicle: Klucel (hydroxypropylcellulose) (HPC)
[2] = dose: 50.0 mg/kg/injection, schedule: Q01DX009 (ip), vehicle: Klucel (hydroxypropylcellulose) (HPC)
[3] = dose: 50.0 mg/kg/injection, schedule: Q01DX005 (ip), vehicle: saline with Tween-80
[4] = dose: 100.0 mg/kg/injection, schedule: Q01DX005 (ip), vehicle: saline with Tween-80
[5] = dose: 200.0 mg/kg/injection, schedule: Q01DX005 (ip), vehicle: saline with Tween-80
[6] = dose: 50.0 mg/kg/injection, schedule: Q01DX005 (ip), vehicle: Klucel (hydroxypropylcellulose) (HPC)
[7] = dose: 100.0 mg/kg/injection, schedule: Q01DX005 (ip), vehicle: Klucel (hydroxypropylcellulose) (HPC)
[8] = dose: 200.0 mg/kg/injection, schedule: Q01DX005 (ip), vehicle: Klucel (hydroxypropylcellulose) (HPC)
[9] = dose: 25.0 mg/kg/injection, schedule: Q01DX005 (ip), vehicle: saline with Tween-80
[10] = dose: 100.0 mg/kg/injection, schedule: Q04DX003 (ip), vehicle: saline with Tween-80

Measured: T/C

S=c1[nH][nH]c(=S)s1
inactive: [1] 95 % of control | [2] 95 % of control

CC(C)C1OC(=O)C=C1Sc1ccccc1 (centres undefined)
inactive: [3] 100 % of control | [4] 99 % of control | [5] 114 % of control

COC(=O)C1=C(C(=O)OC)P2(C)(C)ON=C(c3c(C)cc(C)cc3C)N2C1(c1ccccc1)c1ccccc1
inactive: [6] 100 % of control and 95 % of control | [7] 93 % of control | [8] 91 % of control and 94 % of control

COc1ccc(-c2cc(=O)c3c(O)c(OC)c(OC)cc3o2)cc1O
inactive: dose: 18.8 mg/kg/injection, schedule: Q04DX002 (ip), vehicle: saline with Tween-80 96 % of control | dose: 37.5 mg/kg/injection, schedule: Q04DX002 (ip), vehicle: saline with Tween-80 102 % of control | dose: 75.0 mg/kg/injection, schedule: Q04DX002 (ip), vehicle: saline with Tween-80 93 % of control | dose: 150.0 mg/kg/injection, schedule: Q04DX002 (ip), vehicle: saline with Tween-80 96 % of control

O=C(Nc1ccc(Cl)cc1)Nc1nccs1
inactive: dose: 12.5 mg/kg/injection, schedule: Q01DX009 (ip), vehicle: distilled water + Tween-80 100 % of control | dose: 25.0 mg/kg/injection, schedule: Q01DX009 (ip), vehicle: distilled water + Tween-80 109 % of control | dose: 50.0 mg/kg/injection, schedule: Q01DX009 (ip), vehicle: distilled water + Tween-80 111 % of control | dose: 100.0 mg/kg/injection, schedule: Q01DX009 (ip), vehicle: distilled water + Tween-80 118 % of control

Cc1ccc(S(=O)(=O)Nc2ccc(-c3cc4cc(Cl)ccc4o3)cc2)cc1
inactive: dose: 6.25 mg/kg/injection, schedule: Q01DX005 (ip), vehicle: saline with Tween-80 92 % of control | dose: 12.5 mg/kg/injection, schedule: Q01DX005 (ip), vehicle: saline with Tween-80 91 % of control | [9] 87 % of control

NC(Cn1ccc(=O)c(O)c1)C(=O)O (centres undefined)
inactive: dose: 12.5 mg/kg/injection, schedule: Q01DX005 (ip), vehicle: saline 113 % of control | dose: 25.0 mg/kg/injection, schedule: Q01DX005 (ip), vehicle: saline 115 % of control | dose: 50.0 mg/kg/injection, schedule: Q01DX005 (ip), vehicle: saline 107 % of control | dose: 100.0 mg/kg/injection, schedule: Q01DX005 (ip), vehicle: saline 116 % of control | dose: 100.0 mg/kg/injection, schedule: Q01DX009 (ip), vehicle: saline 100 % of control and 96 % of control | dose: 200.0 mg/kg/injection, schedule: Q01DX005 (ip), vehicle: saline 114 % of control | dose: 200.0 mg/kg/injection, schedule: Q01DX009 (ip), vehicle: saline 102 % of control and 114 % of control | dose: 400.0 mg/kg/injection, schedule: Q01DX009 (ip), vehicle: saline 107 % of control and 96 % of control | dose: 600.0 mg/kg/injection, schedule: Q01DX009 (ip), vehicle: saline 98 % of control and 102 % of control

COc1cccc2c1C(=O)c1c(OC)c(CSC(=N)N)cc(OC)c1C2=O
inactive: dose: 2.0 mg/kg/injection, schedule: Q01DX009 (ip), vehicle: water 99 % of control | dose: 4.0 mg/kg/injection, schedule: Q01DX009 (ip), vehicle: water 104 % of control | dose: 8.0 mg/kg/injection, schedule: Q01DX009 (ip), vehicle: water 104 % of control | dose: 16.0 mg/kg/injection, schedule: Q01DX009 (ip), vehicle: water 117 % of control | dose: 32.0 mg/kg/injection, schedule: Q01DX009 (ip), vehicle: water 121 % of control | dose: 64.0 mg/kg/injection, schedule: Q01DX009 (ip), vehicle: water 111 % of control

CSc1nc(N)nc2nc[nH]c12
inactive: [10] 104 % of control | dose: 200.0 mg/kg/injection, schedule: Q04DX003 (ip), vehicle: saline with Tween-80 122 % of control

CN=C(N)N
inactive: dose: 50.0 mg/kg/injection, schedule: Q01DX001 (ip), vehicle: saline 100 % of control | dose: 100.0 mg/kg/injection, schedule: Q01DX001 (ip), vehicle: saline 98 % of control | dose: 200.0 mg/kg/injection, schedule: Q01DX001 (ip), vehicle: saline 100 % of control | dose: 400.0 mg/kg/injection, schedule: Q01DX001 (ip), vehicle: saline 101 % of control

COC(=O)C1=C(C(=O)OC)P2(c3ccccc3)(c3ccccc3)N(c3ccccc3)C(=Nc3ccccc3)N2C1(c1ccccc1)c1ccccc1
inactive: [6] 94 % of control | [7] 102 % of control and 96 % of control | [8] 100 % of control and 89 % of control

O=C(S)CC(O)(CCl)c1ccc(-c2ccccc2)cc1 (centres undefined)
inactive: dose: 100.0 mg/kg/injection, schedule: Q04DX002 (ip), vehicle: Klucel (hydroxypropylcellulose) (HPC) 113 % of control | dose: 200.0 mg/kg/injection, schedule: Q04DX002 (ip), vehicle: Klucel (hydroxypropylcellulose) (HPC) 101 % of control

c1ccc2c(c1)ncc1cccn12
inactive: [2] 106 % of control | dose: 100.0 mg/kg/injection, schedule: Q01DX009 (ip), vehicle: Klucel (hydroxypropylcellulose) (HPC) 107 % of control | dose: 200.0 mg/kg/injection, schedule: Q01DX009 (ip), vehicle: Klucel (hydroxypropylcellulose) (HPC) 105 % of control | dose: 400.0 mg/kg/injection, schedule: Q01DX009 (ip), vehicle: Klucel (hydroxypropylcellulose) (HPC) 106 % of control

Cc1cc2cc3ccc(Cl)nn3c2nn1
inactive: [9] 104 % of control | [3] 99 % of control | [4] 95 % of control | [5] 96 % of control

CC(CC(=O)c1ccccc1)=NCCN=C(C)CC(=O)c1ccccc1.[Cl][Sn][Cl]
inactive: dose: 100.0 mg/kg/injection, schedule: Q01DX001 (ip), vehicle: Klucel (hydroxypropylcellulose) (HPC) 97 % of control | dose: 200.0 mg/kg/injection, schedule: Q01DX001 (ip), vehicle: Klucel (hydroxypropylcellulose) (HPC) 102 % of control | dose: 400.0 mg/kg/injection, schedule: Q01DX001 (ip), vehicle: Klucel (hydroxypropylcellulose) (HPC) 101 % of control

O=C1CC2(Cl)CN3c4ccccc4C(=O)CC3(Cl)CN2c2ccccc21 (centres undefined)
inactive: dose: 12.5 mg/kg/injection, schedule: Q04DX003 (ip), vehicle: alcohol 100 % of control and 106 % of control | dose: 25.0 mg/kg/injection, schedule: Q04DX003 (ip), vehicle: alcohol 99 % of control and 106 % of control | dose: 50.0 mg/kg/injection, schedule: Q04DX003 (ip), vehicle: alcohol 100 % of control and 108 % of control

COC(=O)C1C(=O)C2OC1C1OC(C)(C)OC21 (centres undefined)
inactive: [6] 94 % of control | [7] 103 % of control | [8] 104 % of control

CC1(c2ccccc2)CCCC(C#N)C1=N (centres undefined)
inactive: dose: 12.5 mg/kg/injection, schedule: Q01DX001 (ip), vehicle: Klucel (hydroxypropylcellulose) (HPC) 106 % of control | dose: 25.0 mg/kg/injection, schedule: Q01DX001 (ip), vehicle: Klucel (hydroxypropylcellulose) (HPC) 100 % of control | dose: 50.0 mg/kg/injection, schedule: Q01DX001 (ip), vehicle: Klucel (hydroxypropylcellulose) (HPC) 103 % of control

CCCC(C)C/C(C)=C/C(C)(C)C(CC(=O)N1CCOCC1)C(=O)O (centres undefined)
inactive: dose: 25.0 mg/kg/injection, schedule: Q04DX003 (ip), vehicle: saline with Tween-80 100 % of control | dose: 50.0 mg/kg/injection, schedule: Q04DX003 (ip), vehicle: saline with Tween-80 100 % of control | [10] 100 % of control

O=C(N/N=C(/C(=N/NC(=O)c1ccccc1)c1ccccc1)c1ccccc1)c1ccccc1
inactive: dose: 100.0 mg/kg/injection, schedule: Q01DX009 (ip), vehicle: saline with Tween-80 100 % of control | dose: 200.0 mg/kg/injection, schedule: Q01DX009 (ip), vehicle: saline with Tween-80 95 % of control | dose: 400.0 mg/kg/injection, schedule: Q01DX009 (ip), vehicle: saline with Tween-80 90 % of control

NC(=O)c1cc([N+](=O)[O-])cnc1Sc1ncccn1
inactive: dose: 12.5 mg/kg/injection, schedule: Q01DX009 (ip), vehicle: Klucel (hydroxypropylcellulose) (HPC) 110 % of control | [1] 118 % of control | [2] 111 % of control and 114 % of control
